# Columns and labels:
# Escherichia coli [1] = test: Compound was tested in vitro for its minimum inhibitory concentration by serial 2-fold agar dilution Muller Hinton method against Escherichia coli 1507E; format: functional
# Staphylococcus aureus [2] = test: Compound was tested in vitro for its minimum inhibitory concentration by serial 2-fold agar dilution Muller Hinton method against Staphylococcus aureus SG511; format: functional
# Enterobacter cloacae [3] = test: Compound was tested in vitro for its minimum inhibitory concentration by serial 2-fold agar dilution Muller Hinton method against Enterobacter cloacae P99; format: functional
# Staphylococcus aureus [4] = test: Compound was tested in vitro for its minimum inhibitory concentration by serial 2-fold agar dilution Muller Hinton method against Staphylococcus aureus 503; format: functional
# Enterobacter cloacae [5] = test: Compound was tested in vitro for its minimum inhibitory concentration by serial 2-fold agar dilution Muller Hinton method against Enterobacter cloacae 1321; format: functional
# Pseudomonas aeruginosa [6] = test: Compound was tested in vitro for its minimum inhibitory concentration by serial 2-fold agar dilution Muller Hinton method against Pseudomonas aeruginosa 1771; format: functional
# Escherichia coli [7] = test: Compound was tested in vitro for its minimum inhibitory concentration by serial 2-fold agar dilution Muller Hinton method against Escherichia coli DC 2; format: functional
# Streptococcus pyogenes [8] = test: Compound was tested in vitro for its minimum inhibitory concentration by serial 2-fold agar dilution Muller Hinton method against Streptococcus pyogenes 8b; format: functional
# Staphylococcus aureus [9] = test: Compound was tested in vitro for its minimum inhibitory concentration by serial 2-fold agar dilution Muller Hinton method against Staphylococcus aureus 285; format: functional
# Pseudomonas aeruginosa [10] = test: Compound was tested in vitro for its minimum inhibitory concentration by serial 2-fold agar dilution Muller Hinton method against Pseudomonas aeruginosa 1592 E; format: functional
# Escherichia coli [11] = test: Compound was tested in vitro for its minimum inhibitory concentration by serial 2-fold agar dilution Muller Hinton method against Escherichia coli O 55; format: functional
# Escherichia coli [12] = test: Compound was tested in vitro for its minimum inhibitory concentration by serial 2-fold agar dilution Muller Hinton method against Escherichia coli DC 0; format: functional
# Klebsiella oxytoca = test: Compound was tested in vitro for its minimum inhibitory concentration by serial 2-fold agar dilution Muller Hinton method against Klebsiella oxytoca 1082 E; format: functional
# Pseudomonas aeruginosa [13] = test: Compound was tested in vitro for its minimum inhibitory concentration by serial 2-fold agar dilution Muller Hinton method against Pseudomonas aeruginosa 9027; format: functional
# Pseudomonas aeruginosa [14] = test: Compound was tested in vitro for its minimum inhibitory concentration by serial 2-fold agar dilution Muller Hinton method against Pseudomonas aeruginosa 1771 M; format: functional
# Streptococcus pyogenes [15] = test: Compound was tested in vitro for its minimum inhibitory concentration by serial 2-fold agar dilution Muller Hinton method against Streptococcus pyogenes A77; format: functional
# Streptococcus pyogenes [16] = test: Compound was tested in vitro for its minimum inhibitory concentration by serial 2-fold agar dilution Muller Hinton method against Streptococcus pyogenes A 308; format: functional
# Escherichia coli [17] = test: Compound was tested in vitro for its minimum inhibitory concentration by serial 2-fold agar dilution Muller Hinton method against Escherichia coli TEM; format: functional
# Klebsiella aerogenes = test: Compound was tested in vitro for its minimum inhibitory concentration by serial 2-fold agar dilution Muller Hinton method against Klebsiella aerogenes 1522 E; format: functional
# Salmonella typhimurium = test: Compound was tested in vitro for its minimum inhibitory concentration by serial 2-fold agar dilution Muller Hinton method against Salmonella Typhimurium; format: functional, Salmonella enterica subsp. enterica serovar Typhimurium; details: Salmonella enterica
MIC (Escherichia coli [1]) [µg/mL],MIC (Staphylococcus aureus [2]) [µg/mL],MIC (Enterobacter cloacae [3]) [µg/mL],MIC (Staphylococcus aureus [4]) [µg/mL],MIC (Enterobacter cloacae [5]) [µg/mL],MIC (Pseudomonas aeruginosa [6]) [µg/mL],MIC (Escherichia coli [7]) [µg/mL],MIC (Streptococcus pyogenes [8]) [µg/mL],MIC (Staphylococcus aureus [9]) [µg/mL],MIC (Pseudomonas aeruginosa [10]) [µg/mL],MIC (Escherichia coli [11]) [µg/mL],MIC (Escherichia coli [12]) [µg/mL],MIC (Klebsiella oxytoca) [µg/mL],MIC (Pseudomonas aeruginosa [13]) [µg/mL],MIC (Pseudomonas aeruginosa [14]) [µg/mL],MIC (Streptococcus pyogenes [15]) [µg/mL],MIC (Streptococcus pyogenes [16]) [µg/mL],MIC (Escherichia coli [17]) [µg/mL],MIC (Klebsiella aerogenes) [µg/mL],MIC (Salmonella typhimurium) [µg/mL],SMILES
0.098,1.56,50,0.391,0.049,25,0.098,> 100,3.12,50,0.025,0.098,25,50,1.56,0.007,0.007,0.098,0.098,0.098,CO/N=C(\C(=O)NC1C(=O)N2C(C(=O)[O-])=C(CN(C)c3scc[n+]3C)CSC12)c1csc(N)n1 (stereo not given)
0.049,0.391,6.25,0.195,0.013,6.25,0.025,12.5,0.781,25,0.025,0.049,3.12,50,0.781,0.007,0.007,0.049,0.025,0.049,CO/N=C(\C(=O)NC1C(=O)N2C(C(=O)[O-])=C(CN(C)c3sc4c([n+]3C)CCCC4)CSC12)c1csc(N)n1 (stereo not given)
0.098,1.56,3.12,0.781,0.025,25,0.049,25,1.56,50,0.049,0.098,6.25,100,1.56,0.004,0.007,0.195,0.049,0.049,CCO/N=C(\C(=O)NC1C(=O)N2C(C(=O)[O-])=C(CN(C)c3sc(C(=O)OCC)c(C)[n+]3C)CSC12)c1csc(N)n1 (stereo not given)
0.391,0.391,12.5,0.195,0.049,6.25,0.025,50,0.781,50,0.049,0.391,6.25,50,0.781,0.004,0.004,0.391,0.195,0.195,C=CCO/N=C(\C(=O)NC1C(=O)N2C(C(=O)[O-])=C(CN(C)c3sc4c([n+]3C)CCCC4)CSC12)c1csc(N)n1 (stereo not given)
0.098,0.781,25,0.391,0.025,3.12,0.025,50,1.56,12.5,0.025,0.098,6.25,25,0.391,0.013,0.013,0.098,0.049,0.049,CCO/N=C(\C(=O)NC1C(=O)N2C(C(=O)[O-])=C(CN(C)c3scc(C)[n+]3C)CSC12)c1csc(N)n1 (stereo not given)
0.098,1.56,3.12,0.781,0.025,25,0.049,25,1.56,50,0.049,0.098,6.25,100,1.56,0.004,0.007,0.195,0.049,0.049,CCOC(=O)c1sc(N(C)CC2=C(C(=O)[O-])N3C(=O)C(NC(=O)/C(=N\OC)c4csc(N)n4)C3SC2)[n+](C)c1C (stereo not given)
0.049,0.391,6.25,0.195,0.013,6.25,0.025,12.5,0.781,25,0.025,0.049,3.12,50,0.781,0.007,0.007,0.049,0.025,0.049,CO/N=C(\C(=O)NC1C(=O)N2C(C(=O)[O-])=C(CN(C)c3sc(C(N)=O)c(C)[n+]3C)CSC12)c1csc(N)n1 (stereo not given)

# From ChEMBL document CHEMBL1133057, “Synthesis and in vitro antibacterial activity of 3-[N-methyl-N-(3-methyl-1,3-thiazolium-2-yl)aminolmethyl cephalosporin derivatives” (2000)
